For one experiment, the target named is T1, human TLR9 (Homo sapiens, UniProt Q9NR96).
T1 construct: host or cells: HEK-Blue cells
T1 sequence (Q9NR96 26-1032): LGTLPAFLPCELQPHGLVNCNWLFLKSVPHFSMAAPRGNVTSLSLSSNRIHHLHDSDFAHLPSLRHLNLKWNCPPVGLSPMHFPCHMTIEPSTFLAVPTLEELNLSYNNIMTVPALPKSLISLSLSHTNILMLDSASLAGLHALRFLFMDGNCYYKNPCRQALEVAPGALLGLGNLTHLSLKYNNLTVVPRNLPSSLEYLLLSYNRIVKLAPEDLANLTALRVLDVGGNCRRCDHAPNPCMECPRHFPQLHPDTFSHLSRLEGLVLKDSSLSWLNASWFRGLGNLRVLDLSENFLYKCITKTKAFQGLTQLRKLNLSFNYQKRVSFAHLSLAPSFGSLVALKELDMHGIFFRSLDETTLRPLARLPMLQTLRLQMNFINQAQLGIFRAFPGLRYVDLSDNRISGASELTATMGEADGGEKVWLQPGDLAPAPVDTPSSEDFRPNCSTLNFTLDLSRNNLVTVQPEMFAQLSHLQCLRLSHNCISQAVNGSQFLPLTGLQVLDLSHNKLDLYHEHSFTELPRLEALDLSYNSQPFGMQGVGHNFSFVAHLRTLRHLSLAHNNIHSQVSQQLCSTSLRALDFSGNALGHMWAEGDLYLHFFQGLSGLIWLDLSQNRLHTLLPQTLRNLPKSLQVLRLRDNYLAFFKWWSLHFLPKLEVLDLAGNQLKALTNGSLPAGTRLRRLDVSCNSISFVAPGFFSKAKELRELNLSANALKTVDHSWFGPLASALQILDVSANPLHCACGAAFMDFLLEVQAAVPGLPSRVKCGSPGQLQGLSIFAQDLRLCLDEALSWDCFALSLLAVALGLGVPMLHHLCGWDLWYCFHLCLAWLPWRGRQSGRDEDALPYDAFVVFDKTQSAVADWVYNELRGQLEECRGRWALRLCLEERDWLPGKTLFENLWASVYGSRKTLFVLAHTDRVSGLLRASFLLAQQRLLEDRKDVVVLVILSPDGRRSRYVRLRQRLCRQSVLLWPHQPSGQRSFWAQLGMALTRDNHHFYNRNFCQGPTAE
The experiment in a line: TLR9 inhibition reporter assay (HEK-Blue cells, SEAP reporter). Type of experiment: cell-based. The following applies: HEK-Blue cells overexpressing human TLR9, stimulated with ODN2006 5 nM, 22 hour incubation. In outline:
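HEK-Blue cells overexpressing human TLR9 (25,000 cells/well), NF-κB/AP-1-driven SEAP reporter. Compounds at 0.05 nM–50 μM final, 22 h at 37 °C, 5% CO2 with agonist. SEAP detected with HEK-Blue Detection medium; % inhibition versus agonist plus DMSO and known-inhibitor wells.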

Another experiment has as its target T2, human TLR8 (Homo sapiens, UniProt Q9NR97).
T2 construct: host or cells: HEK-Blue cells
T2 sequence (Q9NR97 27-1041): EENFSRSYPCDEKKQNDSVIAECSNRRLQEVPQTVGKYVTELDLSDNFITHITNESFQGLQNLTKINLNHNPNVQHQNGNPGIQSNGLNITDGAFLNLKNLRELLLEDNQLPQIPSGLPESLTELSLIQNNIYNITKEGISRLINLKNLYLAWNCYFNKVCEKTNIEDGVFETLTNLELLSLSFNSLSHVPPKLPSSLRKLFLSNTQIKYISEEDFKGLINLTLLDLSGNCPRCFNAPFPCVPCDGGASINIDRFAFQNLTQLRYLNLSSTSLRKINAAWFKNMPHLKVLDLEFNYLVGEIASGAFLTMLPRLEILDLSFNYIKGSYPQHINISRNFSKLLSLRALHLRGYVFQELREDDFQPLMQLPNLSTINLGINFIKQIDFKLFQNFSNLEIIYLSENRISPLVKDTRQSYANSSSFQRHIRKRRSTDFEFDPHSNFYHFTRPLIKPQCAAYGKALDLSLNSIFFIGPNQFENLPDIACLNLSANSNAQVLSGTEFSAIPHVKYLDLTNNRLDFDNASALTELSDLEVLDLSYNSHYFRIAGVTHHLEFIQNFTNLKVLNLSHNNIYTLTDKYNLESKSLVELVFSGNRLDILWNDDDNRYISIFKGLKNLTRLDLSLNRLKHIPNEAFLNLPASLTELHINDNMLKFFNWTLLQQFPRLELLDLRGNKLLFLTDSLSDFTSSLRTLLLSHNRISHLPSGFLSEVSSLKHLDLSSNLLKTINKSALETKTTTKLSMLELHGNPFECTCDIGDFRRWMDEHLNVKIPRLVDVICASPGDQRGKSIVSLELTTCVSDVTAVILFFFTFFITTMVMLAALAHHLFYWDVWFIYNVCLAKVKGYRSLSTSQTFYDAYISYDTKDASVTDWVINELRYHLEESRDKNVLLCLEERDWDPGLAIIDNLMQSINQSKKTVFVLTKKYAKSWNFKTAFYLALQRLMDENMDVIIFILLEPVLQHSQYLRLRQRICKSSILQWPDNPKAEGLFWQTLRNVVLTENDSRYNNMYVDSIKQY
The experiment is described as follows: TLR8 inhibition reporter assay (HEK-Blue cells, SEAP reporter). The format is cell-based. Conditions: HEK-Blue cells overexpressing human TLR8, stimulated with R848 15.9 μM, 22 hour incubation. The method, boiled down:
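Human TLR7/8/9 HEK-Blue reporter lines; dose range 0.05 nM–50 μM; 30 min RT preincubation; stimulus gardiquimod 7.5 μM / R848 15.9 μM / ODN2006 5 nM respectively; 22 h, 37 °C; SEAP detected colorimetrically.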

In the case of `Cc1nc(-c2ccc(CN3C[C@@H]4CC[C@H]3CN4CCC(C)(C)O)cc2)cc2c1cc(-c1ccc(S(C)(=O)=O)cc1)n2C` [Example 61, 4-((1S,4S)-5-(4-(1,4-dimethyl-2-(4-(methylsulfonyl)phenyl)-1H-pyrrolo[3,2-c]pyridin-6-yl)benzyl)-2,5-diazabicyclo[2.2.2]octan-2-yl)-2-methylbutan-2-ol], the IC50 on human TLR9 is 109 nM; on human TLR8, 860 nM.
Turning to `Cc1nc(-c2ccc(N3CCN(CCO)CC3)c(F)c2)cc2c1cc(-c1ccc(S(C)(=O)=O)cc1)n2C` [Example 69, 2-(4-(4-(1,4-dimethyl-2-(4-(methylsulfonyl)phenyl)-1H-pyrrolo[3,2-c]pyridin-6-yl)-2-fluorophenyl)piperazin-1-yl)ethan-1-ol], the IC50 was 78 nM against human TLR9 and over 25000 nM against human TLR8.
As for `Cc1nc(-c2ccc(N3CCN(C4CCOC4)CC3)c(F)c2)cc2c1cc(-c1ccc(S(C)(=O)=O)cc1)n2C` (stereo not drawn) [Example 70, 6-(3-fluoro-4-(4-(tetrahydrofuran-3-yl)piperazin-1-yl)phenyl)-1,4-dimethyl-2-(4-(methylsulfonyl)phenyl)-1H-pyrrolo[3,2-c]pyridine], the IC50 against human TLR9 is 260 nM; against human TLR8, over 25000 nM.
As to `COCCN1C2CCC1CN(c1ccc(-c3cc4c(cc(-c5ccc(S(C)(=O)=O)cc5)n4C)c(C)n3)cc1)C2` [Example 74, 6-(4-(8-(2-methoxyethyl)-3,8-diazabicyclo[3.2.1]octan-3-yl)phenyl)-1,4-dimethyl-2-(4-(methylsulfonyl)phenyl)-1H-pyrrolo[3,2-c]pyridine], the IC50 amounted to 58 nM at human TLR9 and 19400 nM on human TLR8.
`COCCN1C2CCC1CN(c1ccc(-c3cc4c(cc(-c5ccc(S(C)(=O)=O)cc5)n4C)c(C)n3)cc1F)C2` [Example 75, 6-(3-fluoro-4-(8-(2-methoxyethyl)-3,8-diazabicyclo[3.2.1]octan-3-yl)phenyl)-1,4-dimethyl-2-(4-(methylsulfonyl)phenyl)-1H-pyrrolo[3,2-c]pyridine]: the IC50 on human TLR9 amounted to 75 nM; on human TLR8 it was 9600 nM.
The matching figures for `Cc1nc(-c2ccc(N3CC4CCC(C3)N4CCCO)cc2)cc2c1cc(-c1ccc(S(C)(=O)=O)cc1)n2C` [Example 76, 3-(3-(4-(1,4-dimethyl-2-(4-(methylsulfonyl)phenyl)-1H-pyrrolo[3,2-c]pyridin-6-yl)phenyl)-3,8-diazabicyclo[3.2.1]octan-8-yl)propan-1-ol]: 53 nM and 18300 nM.
For `Cc1nc(-c2ccc(N3CC4CCC(C3)N4CCCO)c(F)c2)cc2c1cc(-c1ccc(S(C)(=O)=O)cc1)n2C` [Example 77, 3-(3-(4-(1,4-dimethyl-2-(4-(methylsulfonyl)phenyl)-1H-pyrrolo[3,2-c]pyridin-6-yl)-2-fluorophenyl)-3,8-diazabicyclo[3.2.1]octan-8-yl)propan-1-ol] the same measures were 126 nM and 19200 nM.
As for `COCCN1C2CCC1CN(c1cc(F)c(-c3cc4c(cc(-c5ccc(S(C)(=O)=O)cc5)n4C)c(C)n3)cc1F)C2` [Example 78, 6-(2,5-difluoro-4-(8-(2-methoxyethyl)-3,8-diazabicyclo[3.2.1]octan-3-yl)phenyl)-1,4-dimethyl-2-(4-(methylsulfonyl)phenyl)-1H-pyrrolo[3,2-c]pyridine], the values for the IC50 against human TLR9 and against human TLR8 were 147 nM and 9400 nM, respectively.
For the compound `Cc1nc(-c2cc(F)c(N3CC4CCC(C3)N4CCCO)cc2F)cc2c1cc(-c1ccc(S(C)(=O)=O)cc1)n2C` [Example 79, 3-(3-(4-(1,4-dimethyl-2-(4-(methylsulfonyl)phenyl)-1H-pyrrolo[3,2-c]pyridin-6-yl)-2,5-difluorophenyl)-3,8-diazabicyclo[3.2.1]octan-8-yl) propan-1-ol], the IC50 came to 35 nM against human TLR9 and 9500 nM at human TLR8.
The matching figures for `Cc1nc(-c2ccc(N3CCN(CC(C)C)CC3)c(F)c2F)cc2c1cc(-c1ccc(S(C)(=O)=O)cc1)n2C` [Example 82, 6-(2,3-difluoro-4-(4-isobutylpiperazin-1-yl)phenyl)-1,4-dimethyl-2-(4-(methylsulfonyl)phenyl)-1H-pyrrolo[3,2-c]pyridine]: 329 nM and over 50000 nM.
Regarding `Cc1nc(-c2ccc(C3(O)CCN(C4CC4)CC3)cc2)cc2c1cc(-c1ccc(S(C)(=O)=O)cc1)n2C` [Example 87, 1-cyclopropyl-4-(4-(1,4-dimethyl-2-(4-(methylsulfonyl)phenyl)-1H-pyrrolo[3,2-c]pyridin-6-yl)phenyl)piperidin-4-ol], the IC50 on human TLR9 was 73 nM; on human TLR8, 4000 nM.
Turning to `Cc1nc(-c2ccc(C3(O)CCN(C(C)C)CC3)cc2)cc2c1cc(-c1ccc(S(C)(=O)=O)cc1)n2C` [Example 88, 4-(4-(1,4-dimethyl-2-(4-(methylsulfonyl)phenyl)-1H-pyrrolo[3,2-c]pyridin-6-yl)phenyl)-1-isopropylpiperidin-4-ol], the figures for the IC50 at human TLR9 and at human TLR8 were 114 nM and 10500 nM, respectively.
For `Cc1nc(-c2ccc(N3CCN4CCCC4C3)c(F)c2F)cc2c1cc(-c1ccc(S(C)(=O)=O)cc1)n2C` (stereo not drawn) [Example 99, 6-(2,3-difluoro-4-(hexahydropyrrolo[1,2-a]pyrazin-2(1H)-yl)phenyl)-1,4-dimethyl-2-(4-(methylsulfonyl)phenyl)-1H-pyrrolo[3,2-c]pyridine] the same measures were 250 nM and 6000 nM.
As to `Cc1nc(-c2ccc(C3(O)CC4CCC(C3)N4C(C)C)c(F)c2)cc2c1cc(-c1ccc(S(C)(=O)=O)cc1)n2C` [Example 100, (1R,3r,5S)-3-(4-(1,4-dimethyl-2-(4-(methylsulfonyl)phenyl)-1H-pyrrolo[3,2-c]pyridin-6-yl)-2-fluorophenyl)-8-isopropyl-8-azabicyclo[3.2.1]octan-3-ol], the IC50 on human TLR9 amounted to 184 nM; on human TLR8, 1300 nM.
With `CCN1C2CCC1CC(O)(c1ccc(-c3cc4c(cc(-c5ccc(S(C)(=O)=O)cc5)n4C)c(C)n3)cc1F)C2` [Example 101, (1R,3r,5S)-3-(4-(1,4-dimethyl-2-(4-(methylsulfonyl)phenyl)-1H-pyrrolo[3,2-c]pyridin-6-yl)-2-fluorophenyl)-8-ethyl-8-azabicyclo[3.2.1]octan-3-ol], the IC50 against human TLR9 worked out at 116 nM; against human TLR8 it was 5100 nM.

Source of the values: patent publication US12590091B2, “1H-pyrrolo[3,2-C]pyridine and 1H-pyrrolo[2,3-C]pyridine derivatives as TLR9 inhibitors for the treatment of fibrosis” (BRISTOL-MYERS SQUIBB COMPANY, priority 2020, dated 2026).
